Data on two compounds can be found in BindingDB's records for doi:10.1021/jm800889m (University of Wisconsin At Madison, 2008).

What all share (assay): Radioligand Binding Assay
Experiment [1] addresses T1, Gamma-aminobutyric acid receptor subunit alpha-1 [28-456]/beta-2 [26-512]/gamma-2 [40-200],P14867[176-456] (Homo sapiens, UniProt P14867+P18507+P47870).
T1 construct: 28-456; 26-512; 40-200; 176-456
Conditions: 25 °C.

In experiment [2] the target is T2, Gamma-aminobutyric acid receptor subunit alpha-1 [28-456]/beta-2 [26-512]/gamma-2 [40-467,A118C] (Homo sapiens, UniProt P14867+P18507+P47870, A118C).
T2 construct: 28-456; 26-512; 40-467
As to conditions: 25 °C.

The target in experiment [3] is T3, Gamma-aminobutyric acid receptor subunit alpha-1 [28-456]/beta-2 [26-512]/gamma-2 [40-467,D95C] (Homo sapiens, UniProt P14867+P18507+P47870, D95C).
T3 construct: 28-456; 26-512; 40-467
As to conditions: 25 °C.

Experiment [4] addresses T4, Gamma-aminobutyric acid receptor subunit alpha-1 [28-456]/beta-2 [26-512]/gamma-2 [40-467,L179C] (Homo sapiens, UniProt P14867+P18507+P47870, L179C).
T4 construct: 28-456; 26-512; 40-467
As to conditions: 25 °C.

In experiment [5] the target is T5, Gamma-aminobutyric acid receptor subunit alpha-1 [28-456]/beta-2 [26-512]/gamma-2 [40-467,M169C] (Homo sapiens, UniProt P14867+P18507+P47870, M169C).
T5 construct: 28-456; 26-512; 40-467
Conditions: 25 °C.

Experiment [6] deals with T6, Gamma-aminobutyric acid receptor subunit alpha-1 [28-456]/beta-2 [26-512]/gamma-2 [40-467,R171C] (Homo sapiens, UniProt P14867+P18507+P47870, R171C).
T6 construct: 28-456; 26-512; 40-467
Conditions: 25 °C.

For experiment [7], the target named is T7, Gamma-aminobutyric acid receptor subunit alpha-1 [28-456]/beta-2 [26-512]/gamma-2 [40-467,R183C] (Homo sapiens, UniProt P14867+P18507+P47870, R183C).
T7 construct: 28-456; 26-512; 40-467
As to conditions: 25 °C.

In experiment [8] the target is T8, Gamma-aminobutyric acid receptor subunit alpha-1 [28-456]/beta-2 [26-512]/gamma-2 [40-467,R224C] (Homo sapiens, UniProt P14867+P18507+P47870, R224C).
T8 construct: 28-456; 26-512; 40-467
Conditions: 25 °C.

The target in experiment [9] is T9, Gamma-aminobutyric acid receptor subunit alpha-1 [28-456]/beta-2 [26-512]/gamma-2 [40-467,R233C] (Homo sapiens, UniProt P14867+P18507+P47870, R233C).
T9 construct: 28-456; 26-512; 40-467
Conditions: 25 °C.

Experiment [10] deals with T10, Gamma-aminobutyric acid receptor subunit alpha-1 [28-456]/beta-2 [26-512]/gamma-2 [40-467,T120C] (Homo sapiens, UniProt P14867+P18507+P47870, T120C).
T10 construct: 28-456; 26-512; 40-467
Conditions: 25 °C.

The target of experiment [11] is T11, Gamma-aminobutyric acid receptor subunit alpha-1 [28-456]/beta-2 [26-512]/gamma-2 [40-467,T165C] (Homo sapiens, UniProt P14867+P18507+P47870, T165C).
T11 construct: 28-456; 26-512; 40-467
As to conditions: 25 °C.

For experiment [12], the target named is T12, Gamma-aminobutyric acid receptor subunit alpha-1 [28-456]/beta-2 [26-512]/gamma-2 [40-467,T181C] (Homo sapiens, UniProt P14867+P18507+P47870, T181C).
T12 construct: 28-456; 26-512; 40-467
As to conditions: 25 °C.

The target of experiment [13] is T13, Gamma-aminobutyric acid receptor subunit alpha-1 [28-456]/beta-2 [26-512]/gamma-2 [40-467] (Homo sapiens, UniProt P14867+P18507+P47870).
T13 construct: 28-456; 26-512; 40-467
As to conditions: pH 7.4; 22 °C.

Experiment [14] concerns the target T14, Gamma-aminobutyric acid receptor subunit alpha-1 [A160C]/beta-2 [26-512]/gamma-2 [40-467] (Homo sapiens, UniProt P14867+P18507+P47870, A160C).
T14 construct: 26-512; 40-467
Conditions: 25 °C.

The target of experiment [15] is T15, Gamma-aminobutyric acid receptor subunit alpha-1 [F99C]/beta-2 [26-512]/gamma-2 [40-467] (Homo sapiens, UniProt P14867+P18507+P47870, F99C).
T15 construct: 26-512; 40-467
As to conditions: pH 7.4; 22 °C.

For experiment [16], the target named is T16, Gamma-aminobutyric acid receptor subunit alpha-1 [G157C]/beta-2 [26-512]/gamma-2 [40-467] (Homo sapiens, UniProt P14867+P18507+P47870, G157C).
T16 construct: 26-512; 40-467
Conditions: 25 °C.

For experiment [17], the target named is T17, Gamma-aminobutyric acid receptor subunit alpha-1 [G200C]/beta-2 [26-512]/gamma-2 [40-467] (Homo sapiens, UniProt P14867+P18507+P47870, G200C).
T17 construct: 26-512; 40-467
As to conditions: 25 °C.

Experiment [18] deals with T18, Gamma-aminobutyric acid receptor subunit alpha-1 [S204C]/beta-2 [26-512]/gamma-2 [40-467] (Homo sapiens, UniProt P14867+P18507+P47870, S204C).
T18 construct: 26-512; 40-467
Conditions: 25 °C.

Experiment [19] has as its target T19, Gamma-aminobutyric acid receptor subunit alpha-1 [S205C]/beta-2 [26-512]/gamma-2 [40-467] (Homo sapiens, UniProt P14867+P18507+P47870, S205C).
T19 construct: 26-512; 40-467
As to conditions: 25 °C.

Experiment [20] deals with T20, Gamma-aminobutyric acid receptor subunit alpha-1 [T162C]/beta-2 [26-512]/gamma-2 [40-467] (Homo sapiens, UniProt P14867+P18507+P47870, T162C).
T20 construct: 26-512; 40-467
Conditions: 25 °C.

Experiment [21] addresses T21, Gamma-aminobutyric acid receptor subunit alpha-1 [T206C]/beta-2 [26-512]/gamma-2 [40-467] (Homo sapiens, UniProt P14867+P18507+P47870, T206C).
T21 construct: 26-512; 40-467
Conditions: 25 °C.

Experiment [22] concerns the target T22, Gamma-aminobutyric acid receptor subunit alpha-1 [V202C]/beta-2 [26-512]/gamma-2 [40-467] (Homo sapiens, UniProt P14867+P18507+P47870, V202C).
T22 construct: 26-512; 40-467
As to conditions: 25 °C.

The target in experiment [23] is T23, Gamma-aminobutyric acid receptor subunit alpha-1 [V211C]/beta-2 [26-512]/gamma-2 [40-467] (Homo sapiens, UniProt P14867+P18507+P47870, V211C).
T23 construct: 26-512; 40-467
As to conditions: 25 °C.

Experiment [24] deals with T24, Gamma-aminobutyric acid receptor subunit alpha-2 [29-451]/beta-2 [26-512]/gamma-2 [40-467] (Homo sapiens, UniProt P18507+P47869+P47870).
T24 construct: 29-451; 26-512; 40-467
Conditions: pH 7.4; 22 °C.

Experiment [25] has as its target T25, Gamma-aminobutyric acid receptor subunit alpha-3 [29-492]/beta-2 [26-512]/gamma-2 [40-467] (Homo sapiens, UniProt P18507+P34903+P47870).
T25 construct: 29-492; 26-512; 40-467
As to conditions: pH 7.4; 22 °C.

Experiment [26] concerns the target T26, Gamma-aminobutyric acid receptor subunit alpha-4 [36-554]/beta-2 [26-512]/gamma-2 [40-467] (Homo sapiens, UniProt P18507+P47870+P48169).
T26 construct: 36-554; 26-512; 40-467
As to conditions: pH 7.4; 22 °C.

The target of experiment [27] is T27, Gamma-aminobutyric acid receptor subunit alpha-5 [32-462]/beta-2 [26-512]/gamma-2 [40-467] (Homo sapiens, UniProt P18507+P31644+P47870).
T27 construct: 32-462; 26-512; 40-467
Conditions: pH 7.4; 22 °C.

Experiment [28] has as its target T28, Gamma-aminobutyric acid receptor subunit alpha-6 [20-453]/beta-2 [26-512]/gamma-2 [40-467] (Homo sapiens, UniProt P18507+P47870+Q16445).
T28 construct: 20-453; 26-512; 40-467
Conditions: pH 7.4; 22 °C.

pKi: −log10 of the molar value.

For the compound `CN1CCN(C(=O)Oc2c3[nH]ccnc-3c(=O)n2-c2ccc(Cl)cn2)CC1` [ESZ], the negative logarithm of the Ki (pKi) in experiment [1] was 7.65; in experiment [2] it was 6.41; in experiment [3], 7.08; in experiment [4], 7.33; in experiment [5] it was 6.99; in experiment [6], 6.96. Further, the negative-log Ki (pKi) in experiment [7] is 6.76; in experiment [8], 7.15; in experiment [9], 7.17; in experiment [10], 7.12; in experiment [11], 7.14; in experiment [12], 6.30. Further, the negative-log Ki (pKi) in [13] was 7.30; in [14], 7.22; in experiment [15], 6.39; in experiment [16], 5.68; in experiment [17], 6.92; in experiment [18], 7.24. The pKi in experiment [19] was 7.46; in experiment [20], 7.47; in experiment [21], 9.08; in [22], 6.60; in experiment [23] it was 7.20; in experiment [24], 6.94. Besides, the negative logarithm of the Ki (pKi) in experiment [25] was 6.79; in experiment [26], less than 4.82; in experiment [27] it was 6.99; in experiment [28], less than 4.82.

`Cc1ccc(-c2nc3ccc(C)cn3c2CC(=O)N(C)C)cc1` [Ambien]: the pKi in experiment [26] and in [27] was less than 4.82 in each case.

Usually pKi stands for −log10 of the Ki, conventionally taken in molar units. A low value points to a high Ki.
